Data from patent US20180148418A1, “AMIDO-SUBSTITUTED CYCLOHEXANE DERIVATIVES” (Bayer Pharma Aktiengesellschaft, priority 2015, published 2018).
pIC50: −log10 of the molar value.

Key:
[1] = tested on: wildtype Wnt signaling cascade; experiment: HEK293 TOP assay (Super TopFlash luciferase reporter, Wnt-3a stimulated); type: cell-based; conditions: Homo sapiens, HEK293, 16 h, HEK293 TOP reporter cells, Wnt3a at EC50, 16 hours
Outline: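 Compound series (50 μM down to 15 nM, 3.16-fold) diluted from DMSO 50-fold into CAFTY buffer, pH 7.4, 2 mM Ca^2+, 0.01% BSA, applied to Wnt-3a-stimulated HEK293 TopFlash and FOP reporter lines in parallel. Cells seeded 10000/well 24 h before; luciferase signal measured.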

[2] = tested on: HEK293 cells cotransfected with the FOP control vector; experiment: HEK293 FOP assay (control reporter with non-functional TCF elements); type: cell-based; conditions: Homo sapiens, 16 hours
Outline: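 Compound series from 50 μM down to 15 nM, prediluted in DMSO then 50-fold into CAFTY buffer (pH 7.4, 2 mM Ca2+, 0.01% BSA), tested alongside TOP cells on a Geneticin-selected HEK293 FOP line whose TCF elements are replaced by a random sequence; recombinant human Wnt-3a applied at 2500-5 ng/ml.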

TNKS2 = molecular target: T1, TNKS2 (Homo sapiens, UniProt Q9H2K2); experiment: TNKS2 Assay B (auto-parsylation, [3H]-NAD+ SPA); type: biochemical; conditions: 6 nM TNKS2, auto-parsylation, over night at room temperature
T1 construct: purchased BPS Bioscience, San Diego, USA 80572 (TNKS2 Histone Ribosylation Assay Kit)
T1 sequence (Q9H2K2 1-1166): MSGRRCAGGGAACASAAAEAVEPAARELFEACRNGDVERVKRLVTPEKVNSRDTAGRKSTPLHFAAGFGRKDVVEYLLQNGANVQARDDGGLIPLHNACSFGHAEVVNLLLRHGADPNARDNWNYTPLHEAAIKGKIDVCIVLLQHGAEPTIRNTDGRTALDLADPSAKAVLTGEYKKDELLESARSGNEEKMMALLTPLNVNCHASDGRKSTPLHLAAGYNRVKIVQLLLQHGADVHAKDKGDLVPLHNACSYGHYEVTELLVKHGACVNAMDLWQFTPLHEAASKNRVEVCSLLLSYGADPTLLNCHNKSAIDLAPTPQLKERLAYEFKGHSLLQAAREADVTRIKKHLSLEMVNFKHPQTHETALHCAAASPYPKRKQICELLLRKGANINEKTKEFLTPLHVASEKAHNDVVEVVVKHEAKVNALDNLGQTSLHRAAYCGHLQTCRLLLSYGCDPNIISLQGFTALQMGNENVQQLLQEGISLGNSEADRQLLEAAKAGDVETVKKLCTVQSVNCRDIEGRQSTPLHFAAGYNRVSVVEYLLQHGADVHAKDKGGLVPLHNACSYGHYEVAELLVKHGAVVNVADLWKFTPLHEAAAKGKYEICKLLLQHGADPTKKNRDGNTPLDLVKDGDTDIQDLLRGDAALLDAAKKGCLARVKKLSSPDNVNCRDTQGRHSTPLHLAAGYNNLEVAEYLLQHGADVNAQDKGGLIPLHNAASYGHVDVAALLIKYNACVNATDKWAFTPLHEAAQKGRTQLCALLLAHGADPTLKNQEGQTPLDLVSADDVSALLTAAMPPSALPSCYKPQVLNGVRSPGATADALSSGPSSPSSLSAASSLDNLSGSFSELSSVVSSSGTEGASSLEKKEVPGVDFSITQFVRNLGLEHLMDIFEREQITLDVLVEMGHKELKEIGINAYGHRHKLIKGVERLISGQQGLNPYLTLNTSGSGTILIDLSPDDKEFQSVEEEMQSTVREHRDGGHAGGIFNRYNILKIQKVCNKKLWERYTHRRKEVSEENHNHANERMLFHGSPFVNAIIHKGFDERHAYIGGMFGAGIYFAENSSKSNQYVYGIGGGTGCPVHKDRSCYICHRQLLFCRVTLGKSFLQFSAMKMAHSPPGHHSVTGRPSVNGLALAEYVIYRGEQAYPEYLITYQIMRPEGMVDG

| SMILES | pIC50 [1] | pIC50 [2] | pIC50 (TNKS2) |
| --- | --- | --- | --- |
| O=C(N[C@H]1CC[C@@]2(CCCN(c3ccc(F)cc3Cl)C2=O)CC1)c1[nH]cnc1C(=O)N1CC(F)C1 [Example 327, N-[(trans)-2-(2-chloro-4-fluorophenyl)-1-oxo-2-azaspiro[5.5]undec-9-yl]-4-[(3-fluoroazetidin-1-yl)carbonyl]-1H-imidazole-5-carboxamide] | 8.15 | 4.51 | 7.54 |
| O=C(NC1CC1)c1nc[nH]c1C(=O)N[C@H]1CC[C@@]2(CCCN(c3ccc(F)cc3Cl)C2=O)CC1 [Example 328, N^5-[(trans)-2-(2-chloro-4-fluorophenyl)-1-oxo-2-azaspiro[5.5]undec-9-yl]-N^4-cyclopropyl-1H-imidazole-4,5-dicarboxamide] | 7.30 | 4.57 | 7.12 |
| CC(C)NC(=O)c1nc[nH]c1C(=O)N[C@H]1CC[C@@]2(CCCN(c3ccc(F)cc3Cl)C2=O)CC1 [Example 329, N^5-[(trans)-2-(2-chloro-4-fluorophenyl)-1-oxo-2-azaspiro[5.5]undec-9-yl]-N^4-(propan-2-yl)-1H-imidazole-4,5-dicarboxamide] | 6.59 | 4.40 | 6.80 |
| O=C(N[C@H]1CC[C@@]2(CCN(c3ccc(F)cc3Cl)C2=O)CC1)c1cnn2ccc(C(F)F)nc12 [Example 330, N-[(trans)-2-(2-chloro-4-fluorophenyl)-1-oxo-2-azaspiro[4.5]dec-8-yl]-5-(difluoromethyl)pyrazolo[1,5-a]pyrimidine-3-carboxamide] | 8.30 | 4.52 | 7.96 |
| O=C(N[C@H]1CC[C@@]2(CCN(c3ccc(F)cc3Cl)C2=O)CC1)c1cnn2c(C(F)F)cc(C(F)F)nc12 [Example 331, N-[(trans)-2-(2-chloro-4-fluorophenyl)-1-oxo-2-azaspiro[4.5]dec-8-yl]-5,7-bis(difluoromethyl)pyrazolo[1,5-a]pyrimidine-3-carboxamide] | 8.19 | 4.52 | 7.12 |
| O=C(N[C@H]1CC[C@]2(CCN(c3ccc(F)cc3Cl)C2=O)CC1)c1c[nH]c2cccnc12 [Example 332, N-[(cis)-2-(2-chloro-4-fluorophenyl)-1-oxo-2-azaspiro[4.5]dec-8-yl]-1H-pyrrolo[3,2-b]pyridine-3-carboxamide] | 6.24 | 4.46 | 5.33 |
| Cc1cc(C(F)F)n2ncc(C(=O)N[C@H]3CC[C@]4(CCN(c5ccc(F)cc5Cl)C4=O)CC3)c2n1 [Example 333, N-[(cis)-2-(2-chloro-4-fluorophenyl)-1-oxo-2-azaspiro[4.5]dec-8-yl]-7-(difluoromethyl)-5-methylpyrazolo[1,5-a]pyrimidine-3-carboxamide] | 7.26 | 4.52 | 6.17 |
| Cc1ccn2ncc(C(=O)N[C@H]3CC[C@]4(CCN(c5ccc(F)cc5Cl)C4=O)CC3)c2n1 [Example 335, N-[(cis)-2-(2-chloro-4-fluorophenyl)-1-oxo-2-azaspiro[4.5]dec-8-yl]-5-methylpyrazolo[1,5-a]pyrimidine-3-carboxamide] | 6.19 | ≤ 4.30 | < 5.00 |
| Cc1ccnc2c(C(=O)N[C@H]3CC[C@]4(CCN(c5ccc(F)cc5Cl)C4=O)CC3)cnn12 [Example 336, N-[(cis)-2-(2-chloro-4-fluorophenyl)-1-oxo-2-azaspiro[4.5]dec-8-yl]-7-methylpyrazolo[1,5-a]pyrimidine-3-carboxamide] | 7.27 | ≤ 4.30 | 6.06 |
| COCc1cc(C)n2ncc(C(=O)N[C@H]3CC[C@]4(CCN(c5ccc(F)cc5Cl)C4=O)CC3)c2n1 [Example 337, N-[(cis)-2-(2-chloro-4-fluorophenyl)-1-oxo-2-azaspiro[4.5]dec-8-yl]-5-(methoxymethyl)-7-methylpyrazolo[1,5-a]pyrimidine-3-carboxamide] | 5.96 | ≤ 4.30 | < 5.00 |
| O=C(NC1CC1)c1nc[nH]c1C(=O)N[C@H]1CC[C@]2(CCN(c3ccc(F)cc3Cl)C2=O)CC1 [Example 338, N^5-[(cis)-2-(2-chloro-4-fluorophenyl)-1-oxo-2-azaspiro[4.5]dec-8-yl]-N^4-cyclopropyl-1H-imidazole-4,5-dicarboxamide] | 5.72 | 4.74 | < 5.00 |
| CCNC(=O)c1nc[nH]c1C(=O)N[C@H]1CC[C@]2(CCN(c3ccc(F)cc3Cl)C2=O)CC1 [Example 339, N^5-[(cis)-2-(2-chloro-4-fluorophenyl)-1-oxo-2-azaspiro[4.5]dec-8-yl]-N^4-ethyl-1H-imidazole-4,5-dicarboxamide] | 5.51 | ≤ 4.30 | < 5.00 |
| O=C(N[C@H]1CC[C@]2(CCN(c3ccc(F)cc3Cl)C2=O)CC1)c1[nH]cnc1C(=O)N1CC(F)C1 [Example 340, N-[(cis)-2-(2-chloro-4-fluorophenyl)-1-oxo-2-azaspiro[4.5]dec-8-yl]-4-[(3-fluoroazetidin-1-yl)carbonyl]-1H-imidazole-5-carboxamide] | 7.11 | 4.60 | 6.07 |
| COCCNC(=O)c1nc[nH]c1C(=O)N[C@H]1CC[C@]2(CCN(c3ccc(F)cc3Cl)C2=O)CC1 [Example 341, N^5-[(cis)-2-(2-chloro-4-fluorophenyl)-1-oxo-2-azaspiro[4.5]dec-8-yl]-N^4-(2-methoxyethyl)-1H-imidazole-4,5-dicarboxamide] | 5.54 | ≤ 4.30 | < 5.00 |
| NC(=O)c1nc[nH]c1C(=O)N[C@H]1CC[C@]2(CCN(c3ccc(F)cc3Cl)C2=O)CC1 [Example 342, N^5-[(cis)-2-(2-chloro-4-fluorophenyl)-1-oxo-2-azaspiro[4.5]dec-8-yl]-1H-imidazole-4,5-dicarboxamide] | 6.08 | 4.46 | 5.89 |
| Cn1cc(C(=O)N[C@H]2CC[C@@]3(CCN(c4ccc(F)cc4Cl)C3=O)CC2)c2ncccc21 [Example 343, N-[(trans)-2-(2-chloro-4-fluorophenyl)-1-oxo-2-azaspiro[4.5]dec-8-yl]-1-methyl-1H-pyrrolo[3,2-b]pyridine-3-carboxamide] | 8.64 | 4.62 | 7.80 |
| O=C(N[C@H]1CC[C@@]2(CCN(c3ccc(F)cc3Cl)C2=O)CC1)c1cn(CCO)c2cccnc12 [Example 344, N-[(trans)-2-(2-chloro-4-fluorophenyl)-1-oxo-2-azaspiro[4.5]dec-8-yl]-1-(2-hydroxyethyl)-1H-pyrrolo[3,2-b]pyridine-3-carboxamide] | 8.40 | ≤ 4.30 | 7.68 |
| COCCn1cc(C(=O)N[C@H]2CC[C@@]3(CCN(c4ccc(F)cc4Cl)C3=O)CC2)c2ncccc21 [Example 345, N-[(trans)-2-(2-chloro-4-fluorophenyl)-1-oxo-2-azaspiro[4.5]dec-8-yl]-1-(2-methoxyethyl)-1H-pyrrolo[3,2-b]pyridine-3-carboxamide] | 7.77 | 5.09 | 7.36 |
| O=C(N[C@H]1CC[C@@]2(CCN(c3ccccn3)C2=O)CC1)c1cnn2cccnc12 [Example 346, N-[(trans)-1-oxo-2-(pyridin-2-yl)-2-azaspiro[4.5]dec-8-yl]pyrazolo[1,5-a]pyrimidine-3-carboxamide] | 7.23 | ≤ 4.30 | 6.28 |
| O=C(N[C@H]1CC[C@@]2(CCN(c3ccc(F)cc3Cl)C2=O)CC1)c1nnc2cccnn12 [Example 347, N-[(trans)-2-(2-chloro-4-fluorophenyl)-1-oxo-2-azaspiro[4.5]dec-8-yl][1,2,4]triazolo[4,3-b]pyridazine-3-carboxamide] | 5.62 | ≤ 4.30 | 5.40 |
